Data as given in BindingDB's records for doi:10.1021/jm950817g (Institute, 1996).

Assay: Activity was evaluated by inhibition of the binding of 1 nM [3H]DPDPE at Opioid receptor delta 1 binding site

Which Ki does the source give for `COC[C@]12Cc3ccc(O)cc3[C@](C)(CCc3nnnn31)C2` [1-methoxymethyl-9-methyl-(1S,9R)-2,3,4,5-tetraazatetracyclo[7.7.1.02,6.010,15]heptadeca-3,5,10(15),11,13-pentaen-12-ol] here?
The Ki was > 10 µM.

For `CN1CNC2CCC3(C)CC2(Cc2ccc(O)cc23)C1` (stereo unspecified) [3,9-dimethyl-3,5-diazatetracyclo[7.7.1.01,6.010,15]heptadeca-10,12,14-trien-12-ol], which Ki is on record?
The Ki was 0.863 µM.

With `CN1CC23Cc4ccc(O)cc4C(C)(CCC12)C3` (stereo unspecified) [9,13-dimethyl-13-azatetracyclo[7.5.1.01,12.03,8]pentadeca-3,5,7-trien-6-ol] as the compound, how does the Ki read?
The Ki was > 10 µM.

For `CNC1CCC2(C)CC1(CO)Cc1ccc(O)cc12` (stereo unspecified) [9-Hydroxymethyl-1-methyl-10-methylamino-tricyclo[7.3.1.0*2,7*]trideca-2,4,6-trien-4-ol], which Ki is on record?
The Ki was > 1000 µM.

For `CNCC12Cc3ccc(O)cc3C(C)(CCC1N)C2` (stereo unspecified) [10-Amino-1-methyl-9-methylaminomethyl-tricyclo[7.3.1.0*2,7*]trideca-2,4,6-trien-4-ol], which Ki is on record?
Its Ki is 0.459 µM.

For `CC12CCC(N)C(CO)(Cc3ccc(O)cc31)C2` (stereo unspecified) [10-Amino-9-hydroxymethyl-1-methyl-tricyclo[7.3.1.0*2,7*]trideca-2,4,6-trien-4-ol], which Ki is on record?
The Ki was > 1000 µM.

With `COCC12Cc3ccc(O)cc3C(C)(CCC1N)C2` (stereo unspecified) [10-Amino-9-methoxymethyl-1-methyl-tricyclo[7.3.1.0*2,7*]trideca-2,4,6-trien-4-ol] as the compound, how does the Ki read?
The Ki was 0.467 µM.

Which Ki does the source give for `CN(C)C1CCC2(C)CC1(C)Cc1ccc(O)cc12` (stereo unspecified) [10-Dimethylamino-1,9-dimethyl-tricyclo[7.3.1.0*2,7*]trideca-2,4,6-trien-4-ol] here?
Its Ki is 10 µM.

Which Ki does the source give for `CN(C)C1CCC2(C)CC1(CO)Cc1ccc(O)cc12` (stereo unspecified) [10-Dimethylamino-9-hydroxymethyl-1-methyl-tricyclo[7.3.1.0*2,7*]trideca-2,4,6-trien-4-ol] here?
Its Ki is > 1000 µM.

For `COCC12Cc3ccc(O)cc3C(C)(CCC1N(C)C)C2` (stereo unspecified) [10-Dimethylamino-9-methoxymethyl-1-methyl-tricyclo[7.3.1.0*2,7*]trideca-2,4,6-trien-4-ol], which Ki is on record?
The Ki was 1.4 µM.

Which Ki does the source give for `COC[C@]12Cc3ccc(O)cc3[C@](C)(CCCN1C)C2` [(1R,9R)-9-Methoxymethyl-1,10-dimethyl-10-aza-tricyclo[7.4.1.0*2,7*]tetradeca-2(7),3,5-trien-4-ol] here?
The Ki was > 5 µM.
